Experiments:
Settings in all cases: incubation time: 72 h
HDQ-P1 [1] = experiment: normalised response (% of control), CellTox Green; higher = less cell death (100 = DMSO, 0 = benzethonium chloride kill control)
In short: (§1)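 Plates were normalised with 0.1 % DMSO as 100 and a positive kill control as 0. Breast cancer cell lines in 20 µl suspension had been seeded into 384-well plates with compound at 5 concentrations in 10-fold steps over a compound-specific 10,000-fold range, incubated 72 h, and read for CellTox Green fluorescence (485/520 nm) followed by CellTiter-Glo luminescence. Each value is the normalised signal at a single concentration.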

DU-4475 [2] = experiment: as above
In short: as §1

BT-474 [3] = experiment: as above
In short: as §1

MFM-223 [4] = experiment: as above
In short: as §1

HCC1599 [5] = experiment: as above
In short: as §1

BT-549 [6] = experiment: as above
In short: as §1

CAL-51 [7] = experiment: as above
In short: as §1

MDA-MB-453 [8] = experiment: as above
In short: as §1

Hs578T [9] = experiment: as above
In short: as §1

MDA-MB-436 [10] = experiment: as above
In short: as §1

MDA-MB-231 [11] = experiment: as above
In short: as §1

HCC1937 [12] = experiment: as above
In short: as §1

HCC1143 [13] = experiment: as above
In short: as §1

CAL-148 [14] = experiment: as above
In short: as §1

MCF-10A [15] = experiment: as above
In short: as §1

CAL-85-1 [16] = experiment: as above
In short: as §1

MDA-MB-468 [17] = experiment: as above
In short: as §1

CAL-120 [18] = experiment: as above
In short: as §1

HDQ-P1 [19] = experiment: normalised response (% of control), CellTiter-Glo; higher = more viable cells (100 = DMSO, 0 = benzethonium chloride kill control)
Experimental: (§2)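 DSRT, 72 h incubation, CellTox Green / CellTiter-Glo readout. Signal is normalised to DMSO and benzethonium chloride controls. Value is the normalised response at the highest dose.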

DU-4475 [20] = experiment: as above
Experimental: as §2

BT-474 [21] = experiment: as above
Experimental: as §2

MFM-223 [22] = experiment: as above
Experimental: as §2

HCC1599 [23] = experiment: as above
Experimental: as §2

BT-549 [24] = experiment: as above
Experimental: as §2

CAL-51 [25] = experiment: as above
Experimental: as §2

MDA-MB-453 [26] = experiment: as above
Experimental: as §2

Hs578T [27] = experiment: as above
Experimental: as §2

MDA-MB-436 [28] = experiment: as above
Experimental: as §2

MDA-MB-231 [29] = experiment: as above
Experimental: as §2

HCC1937 [30] = experiment: as above
Experimental: as §2

HCC1143 [31] = experiment: as above
Experimental: as §2

CAL-148 [32] = experiment: as above
Experimental: as §2

MCF-10A [33] = experiment: as above
Experimental: as §2

CAL-85-1 [34] = experiment: as above
Experimental: as §2

SK-BR-3 = experiment: as above
Experimental: as §2

MDA-MB-468 [35] = experiment: as above
Experimental: as §2

CAL-120 [36] = experiment: as above
Experimental: as §2

| Structure (SMILES) | normalised response (HDQ-P1 [1]) | normalised response (DU-4475 [2]) | normalised response (BT-474 [3]) | normalised response (MFM-223 [4]) | normalised response (HCC1599 [5]) | normalised response (BT-549 [6]) | normalised response (CAL-51 [7]) | normalised response (MDA-MB-453 [8]) | normalised response (Hs578T [9]) | normalised response (MDA-MB-436 [10]) | normalised response (MDA-MB-231 [11]) | normalised response (HCC1937 [12]) | normalised response (HCC1143 [13]) | normalised response (CAL-148 [14]) | normalised response (MCF-10A [15]) | normalised response (CAL-85-1 [16]) | normalised response (MDA-MB-468 [17]) | normalised response (CAL-120 [18]) | normalised response (HDQ-P1 [19]) | normalised response (DU-4475 [20]) | normalised response (BT-474 [21]) | normalised response (MFM-223 [22]) | normalised response (HCC1599 [23]) | normalised response (BT-549 [24]) | normalised response (CAL-51 [25]) | normalised response (MDA-MB-453 [26]) | normalised response (Hs578T [27]) | normalised response (MDA-MB-436 [28]) | normalised response (MDA-MB-231 [29]) | normalised response (HCC1937 [30]) | normalised response (HCC1143 [31]) | normalised response (CAL-148 [32]) | normalised response (MCF-10A [33]) | normalised response (CAL-85-1 [34]) | normalised response (SK-BR-3) | normalised response (MDA-MB-468 [35]) | normalised response (CAL-120 [36]) |
| --- | --- | --- | --- | --- | --- | --- | --- | --- | --- | --- | --- | --- | --- | --- | --- | --- | --- | --- | --- | --- | --- | --- | --- | --- | --- | --- | --- | --- | --- | --- | --- | --- | --- | --- | --- | --- | --- |
| CC(=O)Nc1ccc(C(=O)Nc2ccccc2N)cc1 [Tacedinaline] (1000 nM) | 104% | 99% | 97.7% | 105% | 98.2% | 114% | 96.2% | 98.2% | 99.3% | 107% | 111% | 83.6% | 75.3% | 97.9% | 77.3% | 92.3% | 58.9% | 101% | 98.5% | 98% | 95.2% | 99.7% | 120% | 107% | 113% | 98.7% | 92.1% | 95% | 95.7% | 97.2% | 100% | 95.2% | 99.7% | 103% | 98.9% | 108% | 105% |
| O=C(CCCCCCC(=O)Nc1ccc([C@H]2O[C@@H](CSc3nc(-c4ccccc4)c(-c4ccccc4)o3)C[C@@H](c3ccc(CO)cc3)O2)cc1)NO [Tubacin] (10000 nM) | 102% | 92.1% | 73.7% | 81.7% | 95.2% | 71.7% | 53.8% | 39% | 85.2% | 89.9% | -21.5% | 54.5% | 27.7% | 81.1% | 110% | -3.19% | 98.2% | 75.1% | 68.6% | 70.7% | 13.9% | 38.2% | 13.7% | 42% | 35.4% | 6.07% | 51.4% | 57.5% | 8.62% | 32.3% | 37.1% | 73.5% | 52.4% | 18.4% | 45.4% | 17.2% | 51.8% |
| COc1cc2ncnc(Nc3ccc(F)c(Cl)c3)c2cc1NC(=O)/C=C/CN1CCCCC1 [Dacomitinib] (1000 nM) | 94.1% | 99.1% | – | 99.5% | 99.1% | 74.8% | 109% | 96.3% | 115% | – | 103% | – | 75.7% | 96.7% | 96.8% | 38.7% | 121% | 98.7% | 68.1% | 97.8% | 86.8% | 93.1% | 105% | 80.9% | 116% | 56.2% | 90.7% | 84.4% | 84.5% | 84.3% | 94% | 83.9% | 35.8% | 46.8% | 21.1% | 65.3% | 95.6% |
| O=C(O)c1ccc(-c2c[nH]c3ncc(-c4ccccc4)cc23)cc1C1CCCC1 (10000 nM) | 91% | 97.5% | 95.4% | 66.2% | 94% | 99.3% | 63.4% | 102% | 117% | 57.9% | 92.8% | – | 117% | 91.6% | 83.6% | 119% | 90.1% | 99.2% | 107% | 86.2% | 86.7% | 95% | 105% | 74.5% | 92.7% | 105% | 89% | 84.2% | 94.1% | 105% | 97.8% | 94.4% | 97.1% | 99.3% | 58.7% | 57% | 94.5% |
